biological target: T1, Nav1.7 (or SCN9A) channel; HEK cells stably transfected with hSCN9A (Homo sapiens, UniProt Q15858); test: Nav1.7 block, PatchXpress 7000 automated whole-cell voltage clamp, estimated IC50 (EIC50); assay type: cell-based; conditions: estimated IC50; hSCN9A HEK cells, PatchXpress platform; Examples 283-814
T1 construct: expressed in transfected cells
T1 sequence (Q15858 whole entry): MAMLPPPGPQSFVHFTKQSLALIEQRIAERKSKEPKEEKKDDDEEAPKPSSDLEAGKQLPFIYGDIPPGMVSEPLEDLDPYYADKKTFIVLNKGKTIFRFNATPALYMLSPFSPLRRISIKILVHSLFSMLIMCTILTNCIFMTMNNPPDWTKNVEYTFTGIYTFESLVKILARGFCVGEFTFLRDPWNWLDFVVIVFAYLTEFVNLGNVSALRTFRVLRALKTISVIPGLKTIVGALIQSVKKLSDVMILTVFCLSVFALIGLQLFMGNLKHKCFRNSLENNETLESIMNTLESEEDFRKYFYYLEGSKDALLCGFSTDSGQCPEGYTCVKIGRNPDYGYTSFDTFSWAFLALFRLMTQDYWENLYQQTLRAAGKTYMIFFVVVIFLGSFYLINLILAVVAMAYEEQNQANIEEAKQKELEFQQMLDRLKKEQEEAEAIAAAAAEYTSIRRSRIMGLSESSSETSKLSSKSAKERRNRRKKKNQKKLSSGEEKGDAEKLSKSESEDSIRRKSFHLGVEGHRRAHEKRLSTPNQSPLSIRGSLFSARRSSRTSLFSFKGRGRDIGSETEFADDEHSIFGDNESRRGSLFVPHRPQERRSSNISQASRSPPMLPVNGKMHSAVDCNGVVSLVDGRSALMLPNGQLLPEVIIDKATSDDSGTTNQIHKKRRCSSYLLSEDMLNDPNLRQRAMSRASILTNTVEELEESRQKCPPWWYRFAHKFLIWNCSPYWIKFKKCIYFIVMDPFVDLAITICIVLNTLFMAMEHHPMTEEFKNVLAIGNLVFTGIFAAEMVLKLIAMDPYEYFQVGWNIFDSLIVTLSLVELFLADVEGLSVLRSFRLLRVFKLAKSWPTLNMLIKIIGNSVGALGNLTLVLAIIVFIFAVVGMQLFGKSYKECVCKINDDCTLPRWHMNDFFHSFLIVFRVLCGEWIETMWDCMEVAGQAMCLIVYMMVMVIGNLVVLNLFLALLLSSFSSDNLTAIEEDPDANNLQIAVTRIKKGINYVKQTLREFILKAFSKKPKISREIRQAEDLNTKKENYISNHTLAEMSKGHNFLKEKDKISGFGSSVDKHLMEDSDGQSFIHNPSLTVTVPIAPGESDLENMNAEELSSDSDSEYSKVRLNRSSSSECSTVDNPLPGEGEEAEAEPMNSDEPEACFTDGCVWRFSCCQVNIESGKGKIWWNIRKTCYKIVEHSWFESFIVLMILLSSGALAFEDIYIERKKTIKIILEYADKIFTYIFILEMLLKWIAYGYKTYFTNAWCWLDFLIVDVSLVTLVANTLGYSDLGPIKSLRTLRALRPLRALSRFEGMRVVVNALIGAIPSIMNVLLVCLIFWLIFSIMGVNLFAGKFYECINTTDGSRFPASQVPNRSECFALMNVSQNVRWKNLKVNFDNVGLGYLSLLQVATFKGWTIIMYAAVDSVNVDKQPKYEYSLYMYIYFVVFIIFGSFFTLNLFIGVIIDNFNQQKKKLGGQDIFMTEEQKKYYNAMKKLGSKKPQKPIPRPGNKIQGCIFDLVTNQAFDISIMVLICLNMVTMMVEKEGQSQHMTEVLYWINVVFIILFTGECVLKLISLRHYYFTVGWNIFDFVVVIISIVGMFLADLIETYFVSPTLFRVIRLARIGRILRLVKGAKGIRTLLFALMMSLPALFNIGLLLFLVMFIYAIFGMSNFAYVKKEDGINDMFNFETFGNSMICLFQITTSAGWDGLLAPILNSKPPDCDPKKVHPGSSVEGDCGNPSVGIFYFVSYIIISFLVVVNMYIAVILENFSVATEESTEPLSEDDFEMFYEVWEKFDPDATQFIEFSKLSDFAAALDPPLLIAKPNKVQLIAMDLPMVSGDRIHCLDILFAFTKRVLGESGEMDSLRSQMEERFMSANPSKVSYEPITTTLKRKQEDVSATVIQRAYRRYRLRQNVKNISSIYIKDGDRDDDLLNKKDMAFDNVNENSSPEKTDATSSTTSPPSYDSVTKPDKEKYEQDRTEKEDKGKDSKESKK

SMILES	IC50
N#Cc1cc(S(=O)(=O)Nc2ncc(Cl)s2)ccc1Oc1ccc(Cl)cc1-c1ccnn1C1CNC1 [Example 559, 4-[2-(1-azetidin-3-yl-1H-pyrazol-5-yl)-4-chlorophenoxy]-N-(5-chloro-1,3-thiazol-2-yl)-3-cyanobenzenesulfonamide]	0.7 nM
O=S(=O)(Nc1ccncn1)c1cc(Cl)c(Oc2ccc(Cl)cc2C2CCNCC2)cc1F [Example 560, 5-chloro-4-(4-chloro-2-piperidin-4-ylphenoxy)-2-fluoro-N-pyrimidin-4-ylbenzenesulfonamide]	78 nM
O=S(=O)(Nc1ccc(F)cn1)c1cc(F)c(Oc2ccc(Cl)cc2C2CCNCC2)cc1F [Example 561, 4-(4-chloro-2-piperidin-4-ylphenoxy)-2,5-difluoro-N-(5-fluoropyridin-2-yl)benzenesulfonamide]	380 nM
COCCn1nccc1-c1cc(Cl)ccc1Oc1ccc(S(=O)(=O)Nc2ncns2)cc1C#N [Example 562, 4-{4-chloro-2-[1-(2-methoxyethyl)-1H-pyrazol-5-yl]phenoxy}-3-cyano-N-1,2,4-thiadiazol-5-ylbenzenesulfonamide]	17 nM
COCCn1nccc1-c1cc(Cl)ccc1Oc1cc(F)c(S(=O)(=O)Nc2nncs2)cc1Cl [Example 563, 5-chloro-4-{4-chloro-2-[1-(2-methoxyethyl)-1H-pyrazol-5-yl]phenoxy}-2-fluoro-N-1,3,4-thiadiazol-2-ylbenzenesulfonamide]	130 nM
O=S(=O)(Nc1nncs1)c1cc(Cl)c(Oc2ccc(Cl)cc2-c2cn[nH]c2)cc1F [Example 564, 5-chloro-4-[4-chloro-2-(1H-pyrazol-4-yl)phenoxy]-2-fluoro-N-1,3,4-thiadiazol-2-ylbenzenesulfonamide]	9.2 nM
Cc1nn(C)c(C)c1Cc1ccc(Oc2ccc(S(=O)(=O)Nc3ccc(F)cn3)cc2C#N)cc1 [Example 565, 3-cyano-N-(5-fluoropyridin-2-yl)-4-{4-[(1,3,5-trimethyl-1H-pyrazol-4-yl)methyl]phenoxy}benzenesulfonamide]	54000 nM
N#Cc1cc(S(=O)(=O)Nc2ccc(F)cn2)ccc1Oc1ccc(CN2CCC2)c(F)c1 [Example 566, 4-[4-(azetidin-1-ylmethyl)-3-fluorophenoxy]-3-cyano-N-(5-fluoropyridin-2-yl)benzenesulfonamide]	>30000 nM
CCc1nnc(C)n1-c1ccc(Oc2ccc(S(=O)(=O)Nc3ccc(F)cn3)cc2C#N)cc1 [Example 568, 3-cyano-4-[4-(3-ethyl-5-methyl-4H-1,2,4-triazol-4-yl)phenoxy]-N-(5-fluoropyridin-2-yl)benzenesulfonamide]	>3000 nM
N#Cc1cc(S(=O)(=O)Nc2ccc(F)cn2)ccc1Oc1ccc(-n2ccnc2)cc1 [Example 569, 3-cyano-N-(5-fluoropyridin-2-yl)-4-[4-(1H-imidazol-1-yl)phenoxy]benzenesulfonamide]	>3000 nM
CCNC(=O)c1ccc(-c2cccc(Oc3ccc(S(=O)(=O)Nc4ccc(F)cn4)cc3C#N)c2)cc1 [Example 570, 3′-(2-cyano-4-{[(5-fluoropyridin-2-yl)amino]sulfonyl}phenoxy)-N-ethylbiphenyl-4-carboxamide]	8600 nM
Cc1cc(-c2ccccc2Oc2ccc(S(=O)(=O)Nc3ccc(F)cn3)cc2C#N)sn1 [Example 571, 3-cyano-N-(5-fluoropyridin-2-yl)-4-[2-(3-methylisothiazol-5-yl)phenoxy]benzenesulfonamide]	10000 nM
Cc1nc(-c2ccccc2Oc2ccc(S(=O)(=O)Nc3ccc(F)cn3)cc2C#N)cs1 [Example 572, 3-cyano-N-(5-fluoropyridin-2-yl)-4-[2-(2-methyl-1,3-thiazol-4-yl)phenoxy]benzenesulfonamide]	>30000 nM
CN1CCC(c2cccc(Oc3ccc(S(=O)(=O)Nc4ccc(F)cn4)cc3C#N)c2)CC1 [Example 573, 3-cyano-N-(5-fluoropyridin-2-yl)-4-[3-(1-methylpiperidin-4-yl)phenoxy]benzenesulfonamide]	7300 nM
Cc1nc(-c2cccc(Oc3ccc(S(=O)(=O)Nc4ccc(F)cn4)cc3C#N)c2)no1 [Example 574, 3-cyano-N-(5-fluoropyridin-2-yl)-4-[3-(5-methyl-1,2,4-oxadiazol-3-yl)phenoxy]benzenesulfonamide]	>3000 nM
COc1cc(Oc2ccc(S(=O)(=O)Nc3ccc(F)cn3)cc2C#N)ccc1-n1cnc(C)c1 [Example 575, 3-cyano-N-(5-fluoropyridin-2-yl)-4-[3-methoxy-4-(4-methyl-1H-imidazol-1-yl)phenoxy]benzenesulfonamide]	>30000 nM
Cc1nnc(-c2ccc(Oc3ccc(S(=O)(=O)Nc4ccc(F)cn4)cc3C#N)cc2)o1 [Example 576, 3-cyano-N-(5-fluoropyridin-2-yl)-4-[4-(5-methyl-1,3,4-oxadiazol-2-yl)phenoxy]benzenesulfonamide]	>3000 nM
Cc1cnsc1-c1ccccc1Oc1ccc(S(=O)(=O)Nc2ccc(F)cn2)cc1C#N [Example 577, 3-cyano-N-(5-fluoropyridin-2-yl)-4-[2-(4-methylisothiazol-5-yl)phenoxy]benzenesulfonamide]	11000 nM

SMILES	IC50
COc1cc(Oc2ccc(S(=O)(=O)Nc3ccc(F)cn3)cc2C#N)ccc1-n1ccnc1C [Example 578, 3-cyano-N-(5-fluoropyridin-2-yl)-4-[3-methoxy-4-(2-methyl-1H-imidazol-1-yl)phenoxy]benzenesulfonamide]	5500 nM
COc1cc(Oc2ccc(S(=O)(=O)Nc3ccc(F)cn3)cc2C#N)ccc1-n1cccn1 [Example 579, 3-cyano-N-(5-fluoropyridin-2-yl)-4-[3-methoxy-4-(1H-pyrazol-1-yl)phenoxy]benzenesulfonamide]	>3000 nM
N#Cc1cc(S(=O)(=O)Nc2ccc(F)cn2)ccc1Oc1ccccc1-c1nnco1 [Example 580, 3-cyano-N-(5-fluoropyridin-2-yl)-4-[2-(1,3,4-oxadiazol-2-yl)phenoxy]benzenesulfonamide]	6900 nM
N#Cc1cc(S(=O)(=O)Nc2ccc(F)cn2)ccc1Oc1ccc(-c2cocn2)cc1 [Example 581, 3-cyano-N-(5-fluoropyridin-2-yl)-4-[4-(1,3-oxazol-4-yl)phenoxy]benzenesulfonamide]	>3000 nM
N#Cc1cc(S(=O)(=O)Nc2ncc(I)s2)ccc1Oc1ccc(Cl)cc1-c1cn[nH]c1 [Example 582, 4-[4-Chloro-2-(1H-pyrazol-4-yl)phenoxy]-3-cyano-N-(5-iodo-1,3-thiazol-2-yl)benzenesulfonamide]	34 nM
N#Cc1cc(S(=O)(=O)Nc2ncc(Cl)s2)ccc1Oc1ccc(Cl)cc1-c1cn[nH]c1N [Example 583, 4-[2-(5-Amino-1H-pyrazol-4-yl)-4-chlorophenoxy]-N-(5-chloro-1,3-thiazol-2-yl)-3-cyanobenzenesulfonamide]	13 nM
N#Cc1cc(S(=O)(=O)Nc2ncc(Cl)s2)ccc1Oc1ccc(F)cc1-c1ccnc(N)c1 [Example 584, 4-[2-(2-Aminopyridin-4-yl)-4-fluorophenoxy]-N-(5-chloro-1,3-thiazol-2-yl)-3-cyanobenzenesulfonamide]	97 nM
N#Cc1cc(S(=O)(=O)Nc2ncc(Cl)s2)ccc1Oc1ccc(Cl)cc1-c1ccnc(CO)c1 [Example 586, 4-{4-Chloro-2-[2-(hydroxymethyl)pyridin-4-yl]phenoxy}-N-(5-chloro-1,3-thiazol-2-yl)-3-cyanobenzenesulfonamide]	140 nM
N#Cc1cc(S(=O)(=O)Nc2ncc(Cl)s2)ccc1Oc1ccc(F)cc1-c1ccc(N)nc1 [Example 587, 4-[2-(6-Aminopyridin-3-yl)-4-fluorophenoxy]-N-(5-chloro-1,3-thiazol-2-yl)-3-cyanobenzenesulfonamide]	200 nM
N#Cc1cc(S(=O)(=O)Nc2ncc(Cl)s2)ccc1Oc1ccc(Cl)cc1C1COC1 [Example 588, 4-(4-Chloro-2-oxetan-3-ylphenoxy)-N-(5-chloro-1,3-thiazol-2-yl)-3-cyanobenzenesulfonamide]	120 nM
N#Cc1cc(S(=O)(=O)Nc2ncc(Cl)s2)ccc1Oc1ccc(F)cc1-c1ccn[nH]1 [Example 589, N-(5-Chloro-1,3-thiazol-2-yl)-3-cyano-4-[4-fluoro-2-(1H-pyrazol-5-yl)phenoxy]benzenesulfonamide]	510 nM
N#Cc1cc(S(=O)(=O)Nc2ncc(Cl)s2)ccc1Oc1ccc(C(F)(F)F)cc1-c1cn[nH]c1 [Example 590, N-(5-Chloro-1,3-thiazol-2-yl)-3-cyano-4-[2-(1H-pyrazol-4-yl)-4-(trifluoromethyl)phenoxy]benzenesulfonamide]	53 nM
N#Cc1cc(S(=O)(=O)Nc2ncc(Cl)s2)ccc1Oc1ccc(OC(F)(F)F)cc1-c1cn[nH]c1 [Example 591, N-(5-Chloro-1,3-thiazol-2-yl)-3-cyano-4-[2-(1H-pyrazol-4-yl)-4-(trifluoromethoxy)phenoxy]benzenesulfonamide]	73 nM
N#Cc1cc(S(=O)(=O)Nc2ncc(Cl)s2)ccc1Oc1ccc(Cl)cc1C1CCNCC1 [Example 593, 4-(4-Chloro-2-piperidin-4-ylphenoxy)-N-(5-chloro-1,3-thiazol-2-yl)-3-cyanobenzenesulfonamide]	35 nM
N#Cc1cc(S(=O)(=O)Nc2ncc(Cl)s2)ccc1Oc1ccc(Cl)cc1C1CNC1 [Example 594, 4-(2-Azetidin-3-yl-4-chlorophenoxy)-N-(5-chloro-1,3-thiazol-2-yl)-3-cyanobenzenesulfonamide]	160 nM
N#Cc1cc(S(=O)(=O)Nc2ncc(Cl)s2)ccc1Oc1ccc(Cl)cc1-c1ccnn1C(F)F [Example 595, 4-{4-Chloro-2-[1-(difluoromethyl)-1H-pyrazol-5-yl]phenoxy}-N-(5-chloro-1,3-thiazol-2-yl)-3-cyanobenzenesulfonamide]	80 nM
Cn1nccc1-c1cc(F)ccc1Oc1ccc(S(=O)(=O)Nc2ncc(Cl)s2)cc1C#N [Example 596, N-(5-Chloro-1,3-thiazol-2-yl)-3-cyano-4-[4-fluoro-2-(1-methyl-1H-pyrazol-5-yl)phenoxy]benzenesulfonamide]	79 nM
Cn1nccc1-c1cc(Cl)ccc1Oc1ccc(S(=O)(=O)Nc2ncc(Cl)s2)cc1C#N [Example 597, 4-[4-Chloro-2-(1-methyl-1H-pyrazol-5-yl)phenoxy]-N-(5-chloro-1,3-thiazol-2-yl)-3-cyanobenzenesulfonamide]	20 nM
